“Also recorded” adds a separate entry of the source. Read-outs that look alike come from different tables or passages of the source.
Key:
[1] = PC12 cell viability, direct effect of compound; details: rat
reserpinized rats = test: Reversal of reserpine-induced hypolocomotion in rats; assay type: in vivo, rat; details: for reversal of reserpine-induced hypolocomotion (locomotor activity): 10 μMol/kg ip, reserpine 5 mg/kg sc, 18 h pretreatment, rats; for duration of locomotor activation: 10 μMol/kg, reserpinized rats, locomotion monitored for 6 h
human D3 receptor = human D3 receptor (Homo sapiens, UniProt P35462); test: Stimulation of [35S]GTPγS binding, human D3 receptor in CHO cells; assay type: biochemical; details: for Emax: read-out: hCHO−D3 Emax, percent of Emax observed with 100 μM DA; for D2/D3: ratio of GTPγS EC50 values
PC12 cells [2] = test: PC12 cell viability, direct effect of compound; details: PC12 cells, 0.01− 30 μM
PC12 cells [3] = test: Neuroprotection against 6-OHDA-induced toxicity in PC12 cells; details: 24 h pretreatment, then 75 μM 6-OHDA for 24 h
human D2 receptor = human D2 receptor (Homo sapiens, UniProt P14416); test: Stimulation of [35S]GTPγS binding, human D2 receptor in CHO cells; assay type: biochemical; details: for Emax: read-out: hCHO−D2 Emax, percent of Emax observed with 1 mM DA; for hCHO−D2 Emax: percent of Emax observed with 1 mM DA
rat D3 receptor [4] = target: T1, rat D3 receptor (Rattus norvegicus, UniProt P19020); test: [3H]spiroperidol competition binding, rat D3 receptor in HEK-293 cells; details: for D2L/D3: ratio of Ki values, selectivity for D3
rat D2L receptor = rat D2L receptor (Rattus norvegicus, UniProt P61169); test: [3H]spiroperidol competition binding, rat D2L receptor in HEK-293 cells
rat D3 receptor [5] = target: T1, rat D3 receptor; details: ratio of Ki values; cited from earlier work

Sequence of human D3 receptor (P35462 whole entry): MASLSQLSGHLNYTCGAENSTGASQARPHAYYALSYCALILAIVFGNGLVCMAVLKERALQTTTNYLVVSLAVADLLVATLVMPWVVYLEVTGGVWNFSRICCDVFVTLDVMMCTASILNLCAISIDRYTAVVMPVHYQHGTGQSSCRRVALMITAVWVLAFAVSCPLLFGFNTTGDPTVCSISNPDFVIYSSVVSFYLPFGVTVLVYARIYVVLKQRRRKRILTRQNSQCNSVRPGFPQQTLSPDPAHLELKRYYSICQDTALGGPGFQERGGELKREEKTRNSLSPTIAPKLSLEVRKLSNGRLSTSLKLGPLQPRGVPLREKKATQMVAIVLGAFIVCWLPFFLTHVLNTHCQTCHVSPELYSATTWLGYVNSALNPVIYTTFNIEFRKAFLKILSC
T1 sequence (P19020 whole entry): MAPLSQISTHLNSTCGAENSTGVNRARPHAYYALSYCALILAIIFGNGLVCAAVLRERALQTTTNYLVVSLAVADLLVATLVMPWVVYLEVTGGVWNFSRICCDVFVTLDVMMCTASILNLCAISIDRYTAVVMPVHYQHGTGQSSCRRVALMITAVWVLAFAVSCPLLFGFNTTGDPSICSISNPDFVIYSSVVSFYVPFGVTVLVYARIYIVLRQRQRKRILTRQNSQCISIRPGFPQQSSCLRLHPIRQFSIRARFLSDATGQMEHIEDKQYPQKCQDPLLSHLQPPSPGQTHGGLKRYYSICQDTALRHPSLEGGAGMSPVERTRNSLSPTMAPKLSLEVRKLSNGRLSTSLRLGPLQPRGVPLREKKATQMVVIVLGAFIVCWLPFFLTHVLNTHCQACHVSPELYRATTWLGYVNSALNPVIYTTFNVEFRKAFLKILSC
Sequence of human D2 receptor (P14416 whole entry): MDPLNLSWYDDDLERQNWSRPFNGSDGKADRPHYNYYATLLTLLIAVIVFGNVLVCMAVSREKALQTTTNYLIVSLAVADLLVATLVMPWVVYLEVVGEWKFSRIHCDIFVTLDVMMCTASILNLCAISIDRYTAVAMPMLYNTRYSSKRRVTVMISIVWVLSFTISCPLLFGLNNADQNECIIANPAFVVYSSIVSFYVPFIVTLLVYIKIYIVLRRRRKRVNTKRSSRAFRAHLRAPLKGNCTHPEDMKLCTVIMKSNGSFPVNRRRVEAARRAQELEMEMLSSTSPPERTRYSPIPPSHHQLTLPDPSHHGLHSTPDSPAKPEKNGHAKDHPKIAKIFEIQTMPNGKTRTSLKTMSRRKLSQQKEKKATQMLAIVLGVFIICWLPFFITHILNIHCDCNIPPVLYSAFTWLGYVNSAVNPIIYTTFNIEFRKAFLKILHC
Sequence of rat D2L receptor (P61169 whole entry): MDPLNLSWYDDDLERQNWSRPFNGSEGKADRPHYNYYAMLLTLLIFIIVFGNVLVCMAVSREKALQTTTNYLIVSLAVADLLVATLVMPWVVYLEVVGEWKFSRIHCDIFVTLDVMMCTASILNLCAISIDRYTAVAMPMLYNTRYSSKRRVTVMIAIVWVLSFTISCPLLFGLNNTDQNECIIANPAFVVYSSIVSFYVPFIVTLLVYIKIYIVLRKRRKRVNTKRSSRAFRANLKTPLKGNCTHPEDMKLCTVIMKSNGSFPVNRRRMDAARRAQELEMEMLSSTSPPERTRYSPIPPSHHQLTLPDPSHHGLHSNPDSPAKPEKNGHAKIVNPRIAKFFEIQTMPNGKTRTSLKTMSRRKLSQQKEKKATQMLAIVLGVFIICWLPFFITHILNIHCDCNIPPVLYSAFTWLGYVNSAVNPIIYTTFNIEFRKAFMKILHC

Emax (human D3 receptor)	Ki (rat D3 receptor [4])	D2L/D3 (rat D3 receptor [4])	EC50 (human D3 receptor)	D2/D3 (human D3 receptor)	Ki (rat D2L receptor)	EC50 (human D2 receptor)	hCHO−D2 Emax (human D2 receptor)	SMILES	reversal of reserpine-induced hypolocomotion (locomotor activity) (reserpinized rats)	duration of locomotor activation (reserpinized rats)	Emax (human D2 receptor)	other results
								NCCc1cc(O)c(O)cc1O [6-OHDA, 6-hydroxydopamine, reference compound]				viability at 24 h, 75 μM [1]: ~50%
94 ± 3.5%	0.0144 ± 0.001 µM	5.99	0.0109 ± 0.0024 µM	1.98	0.0865 ± 0.015 µM	0.0216 ± 0.0096 µM	26.7 ± 6.4%	C#CCN(CCN1CCN(c2ccc3[nH]ccc3c2Cl)CC1)[C@H]1CCc2nc(N)sc2C1 [(−)-34, (S)-N^6-(2-(4-(4-Chloro-1H-indol-5-yl)piperazin-1-yl)ethyl)-N^6-(prop-2-yn-1-yl)-4,5,6,7-tetrahydrobenzo[d]thiazole-2,6-diamine]	able to elevate locomotor activity in the above PD animal model significantly; also recorded: locomotor activity was enhanced compared to control but was less than that observed with (−)-21a			
~100%	0.000145 ± 3.5e-05 µM	1186	0.00084 ± 5e-05 µM	46.9	0.172 ± 0.016 µM	0.0394 ± 0.0063 µM	86.8 ± 3.8%	C#CCN(CCN1CCN(c2ccc3cc[nH]c3c2Cl)CC1)[C@H]1CCc2nc(N)sc2C1 [(−)-36, (S)-N^6-(2-(4-(7-Chloro-1H-indol-6-yl)piperazin-1-yl)ethyl)-N^6-(prop-2-yn-1-yl)-4,5,6,7-tetrahydrobenzo[d]thiazole-2,6-diamine]			~100%	hCHO−D3 Emax (human D3 receptor; percent of Emax observed with 100 μM DA): 93.4 ± 3.6%
								CCCN(CCN1CCN(C(=O)c2c[nH]c3ccccc23)CC1)C1CCc2nc(N)sc2C1 [D-443, (4-(2-((2-amino-4,5,6,7-tetrahydrobenzo[d]-thiazol-6-yl)(propyl)amino)ethyl)-piperazin-1-yl)(1H-indol-3-yl)methanone]				D2L/D3 (rat D3 receptor [5]): 360
								CCCN(CCC)CCc1cccc2c1CC(=O)N2 [ropinirole, reference compound]	quick onset of locomotor activation compared to control	much shorter duration of action compared with (−)-21a		

SMILES	Emax (human D3 receptor)	Ki (rat D3 receptor [4])	D2L/D3 (rat D3 receptor [4])	EC50 (human D3 receptor)	D2/D3 (human D3 receptor)	Ki (rat D2L receptor)	EC50 (human D2 receptor)	hCHO−D2 Emax (human D2 receptor)	reversal of reserpine-induced hypolocomotion (locomotor activity) (reserpinized rats)	duration of locomotor activation (reserpinized rats)	Emax (human D2 receptor)	other results
CCCN(CCN1CCN(c2ccc3cc[nH]c3c2Cl)CC1)[C@H]1CCc2nc(N)sc2C1.O=C(O)C(F)(F)F [(−)-21a, (S)-N^6-(2-(4-(7-Chloro-1H-indol-6-yl)piperazin-1-yl)ethyl)-N^6-propyl-4,5,6,7-tetrahydrobenzo[d]thiazole-2,6-diamine]	> 100%								highly effcacious in reversing hypolocomotion; also recorded: highly efficacious in reversing akinesia in rats	long duration of action; also recorded: significant enhancement of locomotion for the entire duration of the study of 6 h	> 100%	effect of compound alone on cell viability (PC12 cells [2]): no cell loss at all; neuroprotective effect against 6-OHDA-induced toxicity (PC12 cells [3]): neuroprotective; also recorded: dose-dependently protected the cells from the neurotoxic insult
